# Reference: US9657081B2, “Inhibiting peptides derived from triggering receptor expressed on myeloid cells-1 (TREM-1) TREM-like transcript 1 (TLT-1) for treatment of cardiovascular diseases” (INSERM (Institut National de la Sante et de la Recherche …, priority 2013, dated 2017)
# What was measured:
# TREM-1 [1] = assay: Rat model of myocardial permanent ischemia (myocardial infarction), physiologic parameters and micro-TEP imaging; type: in vivo
# Description: (§1) Adult male Wistar rats (360-380 g) were used. All rats were anaesthetized with ketamine (100 mg/kg, intramuscularly) and mechanically ventilated. After a left thoracotomy, the left coronary artery was identified and ligated with a 6-0 prolene surgical suture. LAD occlusion was confirmed by a change in myocardial color from red to white in the ischemia area (Left ventricle). The chest was closed and the skin was sutured with 6-0 silk. The animals returned to their cage where they were supervised until their complete recovery. The postoperative mortality rate of all rats was 20%.
# (§2) After surgical LAD occlusion, importance of ischemic area was evaluated by micro-TEP imaging. Animals were then randomized to receive peptide (5 mg/kg) every 24 h for 5 days or placebo (vehicle).
# (§3) A further evaluation was performed at 6 weeks by micro-TEP imaging and conductance catheter (Millar) in order to study the treatment effect on myocardial remodeling and myocardial function.
# (§4) In all animals, approximately 70 MBq of ^18F-FDG (in a 0.3-0.5 ml volume) was injected intravenously and under a short anaesthesia (1.5-2.5% of isoflurane inhalation) 60 min prior to initiating PET recording. Recording was acquired in list mode under continuous anaesthesia by isoflurane, using a dedicated small animal PET system (Inveon, Siemens, Knoxville, Tenn., USA). The animals were positioned in the prone position and placed on a heating pad to maintain a body temperature within the normal range. The animals were connected to a standard ECG monitor by three electrodes placed on the inner surfaces of limb extremities. Recording times were 20 min for 18F emission and 6 min for 57Co transmission. The coincidence timing window was set to 3.4 ns and the energy window between 350 and 650 keV. Images were reconstructed in 16 cardiac intervals, providing a temporal resolution of 11-15 ms for common heart rate values. Under these conditions, the axial spatial resolution was less than 1.5 mm. In addition, on LV rat phantoms obtained by a stereolithography process, a precise determination of the actual cavity volumes was provided by FDG PET images above the level of 100 μl corresponding to the lower limit for the LV endsystolic volume in adult.
# We finally investigated whether the modulation of the inflammatory response conferred by TREM-1- and TLT-1-derived peptides was able to translate into cardiac function improvement after a severe MI. We performed a permanent coronary artery ligation in rats before randomisation and imaging as described above.
# TREM-1 [2] = assay: Monkey model of endotoxin (LPS) infusion: blood pressure monitoring; type: in vivo, cynomolgus monkey (Macaca fascicularis)
# Description: Male cynomolgus monkeys (Macaca fascicularis) (2.8 to 3.5 kg, 24 months old, Le Tamarinier, La Route Royale, Tamarin, Mauritius) were used. Animals were fasted the day before LPS challenge but with full access to water. CIToxLAB France Ethical Committee (CEC) reviewed and approved all study plans (Nr CEC: 02221).
# Vital signs and weight were recorded the day before LPS challenge. The next morning, baseline clinical laboratory samples were collected, and a baseline set of vital signs was recorded. The drug was administered into the cephalic or saphenous vein via a Teflon catheter. Contralateral vein was used for LPS administration.
# Monkeys were randomized to receive LR12 or placebo (n=6 per group). An additional group of 4 was constituted to only receive vehicle (NaCl 0.9%) infusion and served as the control group.
# At time point 0, a 15 mins intravenous infusion of LR12 or placebo solution was begun, at the rate of 12 mL/h (5 mg/kg, 10 mins, 2 mL), delivered by a calibrated syringe pump (Harvard Apparatus). A continuous infusion was then administered for further 8 hours at the rate of 2 mL/h (1 mg/kg/h, 8 hours, 16 mL). Just before treatment infusion, an intravenous bolus of LPS (10 μg/kg) was administered over the course of a 10 mins period into the contralateral catheter. Animals remained awake in an upright position in a restraint chairs and continued to fast from food for the whole study duration.
# Pulse rate, and blood pressure were monitored every 15 mins for 1 hour, then every 30 mins for 7 hours.
# TREM-1 [3] = assay: Rat model of myocardial ischemia-reperfusion, physiologic parameters and micro-TEP imaging; type: in vivo
# Description: as §1, §2, §3
# Animals received same surgery than in permanent ischemia, but with reperfusion of ischemic area by release of the LAD ligation after 60 minutes of ischemia. The same protocol as described above was then applied.
# as §4
# To investigate the role of TREM-1- and TLT-1-derived peptides in a more relevant model of MI, we performed a transient coronary artery ligation (ischemia-reperfusion model: IR) in rats. After randomisation, animals were then imaged under anaesthesia (micro-TEP) and administered with TREM-1- and TLT-1-derived peptides (3 mg/kg daily for 5 days i.p.) or LR12-scrambled peptide. Imaging was then repeated at 6 weeks before we studied cardiac function by using a conductance catheter (Millar).
sequence,measurement,setting,value
LQEEDAGEYGCM (listed as Homo sapiens) [TLT1-LR12],Body weight,TREM-1 [1]; Baseline,313 ± 51 g
same,EDV,TREM-1 [1]; Baseline,417 ± 92 µL
same,EF,TREM-1 [1]; Baseline,48 ± 9%
same,ESV,TREM-1 [1]; Baseline,215 ± 62 µL
same,Heart rate,TREM-1 [1]; Baseline,400 ± 26 bpm
same,MI Areas,TREM-1 [1]; Baseline,22 ± 11 % of LV
same,MT Areas,TREM-1 [1]; Baseline,54 ± 30 mm^2
same,Systolic blood pressure,TREM-1 [1]; Baseline,136 ± 17 mmHg
same,Body weight,TREM-1 [1]; Six weeks,426 ± 49 g
same,"Body weight, difference with baseline",TREM-1 [1]; Six weeks,113 ± 51 g
same,EDV,TREM-1 [1]; Six weeks,615 ± 161 µL
same,"EDV, difference with baseline",TREM-1 [1]; Six weeks,198 ± 95 µL
same,EF,TREM-1 [1]; Six weeks,50 ± 8%
same,"EF, difference with baseline",TREM-1 [1]; Six weeks,2 ± 7%
same,ESV,TREM-1 [1]; Six weeks,313 ± 128 µL
same,"ESV, difference with baseline",TREM-1 [1]; Six weeks,99 ± 80 µL
same,Heart rate,TREM-1 [1]; Six weeks,393 ± 23 bpm
same,"Heart rate, difference with baseline",TREM-1 [1]; Six weeks,−8 ± 22 bpm
same,"MI Areas (% of LV), difference with baseline",TREM-1 [1]; Six weeks,−6.0 ± 8.1 % of LV
same,"MI Areas (mm^2), difference with baseline",TREM-1 [1]; Six weeks,−5 ± 23 mm^2
same,Systolic blood pressure,TREM-1 [1]; Six weeks,136 ± 17 mmHg
same,"Systolic blood pressure, difference with baseline",TREM-1 [1]; Six weeks,−12 ± 26 mmHg
same,arterial pressure / hypotension after LPS challenge,TREM-1 [2]; LPS 10 μg/kg,never went hypotensive
same,Heart rate after LPS injection,"TREM-1 [2]; LPS 10 μg/kg, 5 mg/kg then 1 mg/kg/h for 8 hours i.v.",no effects
same,"body temperature increase after LPS, difference between placebo (LR12scr) and LR12-treated animals",TREM-1 [2]; between H1 and H2,not significant
same,Body weight,TREM-1 [3]; Baseline,391 ± 9 g
same,EDV,TREM-1 [3]; Baseline,511 ± 55 µL
same,EF,TREM-1 [3]; Baseline,47 ± 6%
same,ESV,TREM-1 [3]; Baseline,251 ± 75 µL
same,Heart rate,TREM-1 [3]; Baseline,343 ± 43 bpm
same,MI Areas,TREM-1 [3]; Baseline,41 ± 20 % of LV
same,Systolic blood pressure,TREM-1 [3]; Baseline,134 ± 2 mmHg
same,Body weight,TREM-1 [3]; Six weeks,439 ± 12 g
same,"Body weight, difference with baseline",TREM-1 [3]; Six weeks,48 ± 10 g
same,EDV,TREM-1 [3]; Six weeks,620 ± 34 µL
same,"EDV, difference with baseline",TREM-1 [3]; Six weeks,109 ± 55 µL
same,EF,TREM-1 [3]; Six weeks,56 ± 5%
same,"EF, difference with baseline",TREM-1 [3]; Six weeks,9 ± 7%
same,ESV,TREM-1 [3]; Six weeks,273 ± 47 µL
same,"ESV, difference with baseline",TREM-1 [3]; Six weeks,22 ± 18 µL
same,Heart rate,TREM-1 [3]; Six weeks,370 ± 25 bpm
same,"Heart rate, difference with baseline",TREM-1 [3]; Six weeks,27 ± 22 bpm
same,MI Areas,TREM-1 [3]; Six weeks,3 ± 9 % of LV
same,"MI Areas, difference with baseline",TREM-1 [3]; Six weeks,−38 ± 8 % of LV
same,Systolic blood pressure,TREM-1 [3]; Six weeks,167 ± 6 mmHg
same,"Systolic blood pressure, difference with baseline",TREM-1 [3]; Six weeks,33 ± 6 mmHg
